How the values were obtained:
[1] = system: Human immunodeficiency virus 2; assay: Antiviral activity against wild type HIV-2 ROD infected in human MT4 cells assessed as protection against virus-induced cytopathic effect incubated for 5 days by MTT assay; type: functional, organism-based; conditions: Human immunodeficiency virus 2, ROD, MT4, 120 h
[2] = system: Human immunodeficiency virus 1; assay: Antiviral activity against wild type HIV-1 IIIB infected in human MT4 cells assessed as protection against virus-induced cytopathic effect incubated for 5 days by MTT assay; type: functional, organism-based; conditions: Human immunodeficiency virus 1, IIIB, MT4, 120 h
[3] = Cytotoxicity against human MT4 cells assessed as reduction in cell viability incubated for 5 days by MTT assay; type: toxicity, cell-based; conditions: time 5 day
[4] = system: Human immunodeficiency virus 1; assay: Antiviral activity against HIV-1 […] mutant infected in human MT4 cells assessed as protection against virus-induced cytopathic effect incubated for 5 days by MTT assay; type: functional, organism-based; conditions: Human immunodeficiency virus 1, MT4, 120 h
[5] = system: Human immunodeficiency virus 1; assay: Antiviral activity against HIV-1 K103N mutant infected in human MT4 cells assessed as protection against virus-induced cytopathic effect incubated for 5 days by MTT assay; type: functional, organism-based; conditions: Human immunodeficiency virus 1, MT4, 120 h
[6] = system: Human immunodeficiency virus 1; assay: Antiviral activity against HIV-1 Y181C mutant infected in human MT4 cells assessed as protection against virus-induced cytopathic effect incubated for 5 days by MTT assay; type: functional, organism-based; conditions: Human immunodeficiency virus 1, MT4, 120 h
[7] = system: Human immunodeficiency virus 1; assay: Antiviral activity against HIV-1 Y188L mutant infected in human MT4 cells assessed as protection against virus-induced cytopathic effect incubated for 5 days by MTT assay; type: functional, organism-based; conditions: Human immunodeficiency virus 1, MT4, 120 h
[8] = system: Human immunodeficiency virus 1; assay: Antiviral activity against HIV-1 E138K mutant infected in human MT4 cells assessed as protection against virus-induced cytopathic effect incubated for 5 days by MTT assay; type: functional, organism-based; conditions: Human immunodeficiency virus 1, MT4, 120 h
[9] = system: Human immunodeficiency virus 1; assay: Antiviral activity against HIV-1 F227L/V106A mutant infected in human MT4 cells assessed as protection against virus-induced cytopathic effect incubated for 5 days by MTT assay; type: functional, organism-based; conditions: Human immunodeficiency virus 1, MT4, 120 h
[10] = in vitro; conditions: human, MT4 cells
Description: Selectivity index, ratio of CC50 for cytotoxicity against human MT4 cells to EC50 for antiviral activity against wild type HIV-1 IIIB infected in human MT4 cells

[11] = system: Human immunodeficiency virus 1; assay: microbe, parasite or virus in culture; conditions: Human immunodeficiency virus 1, MT4, 120 h
Description: Antiviral activity against HIV-1 RES056 mutant infected in human MT4 cells assessed as protection against virus-induced cytopathic effect incubated for 5 days by MTT assay

[12] = molecular target: Human immunodeficiency virus type 1 reverse transcriptase (Human immunodeficiency virus 1, UniProt Q72547); assay: Inhibition of wild type HIV-1 reverse transcriptase assessed as inhibition of biotin-dUTP incorporation using ABTS as substrate incubated for 1 hrs by ELISA analysis

| SMILES | EC50 [1] [nM] | EC50 [2] [nM] | CC50 at 120 h [3] [nM] | EC50 [4] [nM] | EC50 [5] [nM] | EC50 [6] [nM] | EC50 [7] [nM] | EC50 [8] [nM] | EC50 [9] [nM] | selectivity ratio [10] | EC50 [11] [nM] | IC50 [12] [nM] |
| --- | --- | --- | --- | --- | --- | --- | --- | --- | --- | --- | --- | --- |
| Cc1cn([C@@H]2C[C@@H](N=[N+]=[N-])[C@H](CO)O2)c(=O)[nH]c1=O | 0.036 | 30 | > 7480 | 10.5 | 29.6 | 22.1 | 21 | 23.6 | 37.8 | > 250 | 28.8 |  |
| Cc1cc(C#N)cc(C)c1Oc1nc(NC2CCN(Cc3ccc(S(C)(=O)=O)cc3)CC2)c(C#N)cc1Cl | > 227 | 21.8 | > 227000 |  |  |  |  |  |  | > 10400 |  | 449 |
| Cc1cc(C#N)cc(C)c1Oc1ccc(C#N)c(Nc2ccc(C#N)c(C#N)c2)n1 | > 320 | 115 | > 320000 |  |  |  |  |  |  | > 2780 |  | 697 |
| Cc1cc(C#N)cc(C)c1Oc1nc(Nc2ccc(C#N)cc2)c(C#N)cc1Cl | > 240 | 28.7 | 240000 |  |  |  |  |  |  | 8340 |  | 153 |
| Cc1cc(C#N)cc(C)c1Oc1nc(NC2CCN(Cc3ccc(S(N)(=O)=O)cc3)CC2)c(C#N)cc1Cl | > 22.6 | 32.7 | 22600 |  |  |  |  |  |  | 691 |  | 466 |
| Cc1cc(C#N)cc(C)c1Oc1nc(Nc2ccc(C#N)c(F)c2)c(C#N)cc1F | > 218 | 10.4 | 218000 | 316 | 540 | 1930 | 16700 | 141 | 710 | 20900 | > 218000 | 143 |
| Cc1cc(C#N)cc(C)c1Oc1nc(Nc2ccc(C#N)c(C#N)c2)c(C#N)cc1Cl | > 202 | 14.1 | 202000 | 313 | 233 | 1120 | > 202000 | 287 | 2250 | 14300 | > 202000 | 144 |
| Cc1cc(C#N)cc(C)c1Oc1ccc(C#N)c(Nc2ccc(C#N)cc2)n1 | > 326 | 7.82 | > 65200 | 123 | 446 | 1540 | ≥ 33000 | 54.8 | 10900 | > 8330 | > 65200 | 94 |
| Cc1cc(C#N)cc(C)c1Oc1nc(NC2CCN(Cc3ccc(S(N)(=O)=O)cc3)CC2)c(C#N)cc1F | > 25.2 | 11.2 | 25200 | 43 | 16.8 | 44.9 | 157 | 52.4 | 234 | 2250 | 260 | 292 |
| Cc1cc(C#N)cc(C)c1Oc1ccc(C#N)c(NC2CCN(Cc3ccc(S(N)(=O)=O)cc3)CC2)n1 | > 21.8 | 3.87 | 21800 | 73.6 | 19.4 | 36.8 | 114 | 19.4 | 194 | 5630 | 2780 | 205 |
| Cc1cc(C#N)cc(C)c1Oc1ccc(C#N)c(Nc2ccc(CN3CCN(S(=O)(=O)N(C)C)CC3)cc2)n1 | > 5.17 | 197 | 5170 |  |  |  |  |  |  | 26 |  | 1550 |
| Cc1cc(C#N)cc(C)c1Oc1nc(Nc2ccc(C#N)cc2)c(C#N)cc1F | > 311 | 7.47 | > 62300 | 1140 | 2040 | 22400 | > 62300 | 341 | ≥ 17400 | > 8330 | > 62300 | 112 |
| Cc1cc(C#N)cc(C)c1Oc1nc(Nc2ccc(C#N)c(F)c2)c(C#N)cc1Cl | > 282 | 25 | 282000 |  |  |  |  |  |  | 11300 |  | 98 |
| Cc1cc(C#N)cc(C)c1Oc1nc(Nc2ccc(CN3CCN(S(=O)(=O)N(C)C)CC3)cc2)c(C#N)cc1Cl | > 178 | 69 | 178000 |  |  |  |  |  |  | 2580 |  | 686 |
| Cc1cc(C#N)cc(C)c1Oc1nc(Nc2ccc(CN3CCN(S(C)(=O)=O)CC3)cc2)c(C#N)cc1F | > 213 | 44.9 | 213000 |  |  |  |  |  |  | 4740 |  | 294 |
| Cc1cc(C#N)cc(C)c1Oc1nc(Nc2ccc(CN3CCN(S(=O)(=O)N(C)C)CC3)cc2)c(C#N)cc1F | > 149 | 200 | 149000 |  |  |  |  |  |  | 744 |  | 2600 |
| Cc1cc(C#N)cc(C)c1Oc1nc(NC2CCN(Cc3ccc(S(C)(=O)=O)cc3)CC2)c(C#N)cc1F | > 27 | 5.62 | 27500 | 22.5 | 9.37 | 28.1 | 73.1 | 18.7 | 67.5 | 4890 | 171 | 341 |
| Cc1cc(C#N)cc(C)c1Oc1nc(Nc2ccc(CN3CCN(S(C)(=O)=O)CC3)cc2)c(C#N)cc1Cl | > 208 | 14.5 | 208000 | 238 | 633 | 555 | 2960 | 131 | 276 | 14300 | > 208000 | 392 |
| Cc1cc(C#N)cc(C)c1Oc1ccc(C#N)c(NC2CCN(Cc3ccc(C(N)=O)cc3)CC2)n1 | > 28.6 | 8.32 | 28600 | 318 | 110 | 110 | 348 | 50 | 1020 | 3440 | 4250 | 256 |
| Cc1cc(C#N)cc(C)c1Oc1ccc(C#N)c(NC2CCN(Cc3ccc(S(C)(=O)=O)cc3)CC2)n1 | > 19.1 | 5.82 | 19100 | 136 | 34.9 | 38.8 | 244 | 211 | 182 | 3290 | 7180 | 429 |
| Cc1cc(C#N)cc(C)c1Oc1ccc(C#N)c(Nc2ccc(CN3CCN(S(C)(=O)=O)CC3)cc2)n1 | > 18 | 40.7 | 18000 |  |  |  |  |  |  | 444 |  | 277 |
| Cc1cc(C#N)cc(C)c1Oc1ccc(C#N)c(Nc2ccc(C#N)c(F)c2)n1 | > 27.3 | 1460 | 27300 |  |  |  |  |  |  | 19 |  | 12000 |
| Cc1cc(C#N)cc(C)c1Oc1nc(NC2CCN(Cc3ccc(C(N)=O)cc3)CC2)c(C#N)cc1F | > 24.5 | 6.02 | 24100 | 100 | 44.1 | 84.2 | 227 | 26.1 | 347 | 4010 | 3590 | 303 |
| Cc1cc(C#N)cc(C)c1Oc1nc(NC2CCN(Cc3ccc(C(N)=O)cc3)CC2)c(C#N)cc1Cl | > 154 | 5.83 | 154000 | 66 | 31.1 | 40.8 | 221 | 33 | 357 | 26500 | 2440 | 402 |
| Cc1cc(C#N)cc(C)c1Oc1nc(Nc2ccc(C#N)c(C#N)c2)c(C#N)cc1F | > 306 | 26.9 | > 306000 |  |  |  |  |  |  | > 11400 |  | 230 |
| O=C1Nc2ccc(Cl)cc2[C@@](C#CC2CC2)(C(F)(F)F)O1 [EFAVIRENZ] |  | 2.53 | > 6340 | 31.8 | 114 | 6.34 | 355 | 6.34 | 890 |  |  |  |
| Cc1cc(C#N)cc(C)c1Oc1nc(Nc2ccc(C#N)cc2)nc(N)c1Br [ETRAVIRINE] |  |  | > 4600 | 4.6 | 3.45 | 8.96 | 18.4 | 4.82 |  |  | 20.2 |  |
| Cc1ccnc2c1NC(=O)c1cccnc1N2C1CC1 [NEVIRAPINE] | > 9.51 |  | > 9510 | 1990 |  | 4210 | > 9510 | 76.1 | > 9510 |  | > 9510 |  |

Reference: ChEMBL document CHEMBL5625210, “5-Cyano substituted diarylpyridines as potent HIV-1 NNRTIs: Rational design, synthesis, and activity evaluation” (Eur J Med Chem, 2023)
